Reference: BindingDB's records for doi:10.1016/j.bioorg.2016.06.001 (Tehran University of Medical Sciences, 2016)

What was measured:
Details in all cases: pH 8
Acetylcholinesterase = Acetylcholinesterase (Electrophorus electricus, UniProt O42275); test: AChE and BChE Inhibition Assay
Experimental: (§1) In vitro AChEI activity was performed based on the modified Ellman's methodas previously reported by our group using a 96-well plate reader (BioTek ELx808). […] Each well contained 50 uL potassium phosphate buffer (KH2PO4/K2HPO4, 0.1 M, pH 8), 25 uL prepared sample as described above, 25 uL enzyme with final concentration of 0.22 U/mL in buffer. They were preincubated for 15 min at rt, and then 125 uL DTNB (3 mM in buffer) was added. […] The IC50 values were determined graphically from inhibition curves (log inhibitor concentration vs. percent of inhibition).

[1] = biological target: Carboxylic ester hydrolase (Equus caballus, UniProt Q9N1N9); test: AChE and BChE Inhibition Assay
Sequence of Carboxylic ester hydrolase (Q9N1N9 whole entry): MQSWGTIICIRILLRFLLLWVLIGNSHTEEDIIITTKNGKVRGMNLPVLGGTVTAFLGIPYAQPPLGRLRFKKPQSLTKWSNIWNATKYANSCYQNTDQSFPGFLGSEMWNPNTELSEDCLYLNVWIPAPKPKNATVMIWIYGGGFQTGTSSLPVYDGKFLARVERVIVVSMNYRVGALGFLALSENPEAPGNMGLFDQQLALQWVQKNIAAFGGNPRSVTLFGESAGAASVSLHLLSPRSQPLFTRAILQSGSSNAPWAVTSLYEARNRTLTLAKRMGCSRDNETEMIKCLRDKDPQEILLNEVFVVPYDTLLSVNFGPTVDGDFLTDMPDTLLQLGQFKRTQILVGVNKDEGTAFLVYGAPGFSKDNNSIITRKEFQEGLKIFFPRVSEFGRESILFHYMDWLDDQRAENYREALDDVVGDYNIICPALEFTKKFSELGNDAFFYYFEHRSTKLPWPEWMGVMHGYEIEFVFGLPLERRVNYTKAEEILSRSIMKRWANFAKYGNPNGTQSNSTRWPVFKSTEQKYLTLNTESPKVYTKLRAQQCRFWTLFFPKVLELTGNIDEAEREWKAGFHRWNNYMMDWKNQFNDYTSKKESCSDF
Experimental: as §1

[2] = AChE and BChE Inhibition Assay

Sequence of Acetylcholinesterase (O42275 whole entry): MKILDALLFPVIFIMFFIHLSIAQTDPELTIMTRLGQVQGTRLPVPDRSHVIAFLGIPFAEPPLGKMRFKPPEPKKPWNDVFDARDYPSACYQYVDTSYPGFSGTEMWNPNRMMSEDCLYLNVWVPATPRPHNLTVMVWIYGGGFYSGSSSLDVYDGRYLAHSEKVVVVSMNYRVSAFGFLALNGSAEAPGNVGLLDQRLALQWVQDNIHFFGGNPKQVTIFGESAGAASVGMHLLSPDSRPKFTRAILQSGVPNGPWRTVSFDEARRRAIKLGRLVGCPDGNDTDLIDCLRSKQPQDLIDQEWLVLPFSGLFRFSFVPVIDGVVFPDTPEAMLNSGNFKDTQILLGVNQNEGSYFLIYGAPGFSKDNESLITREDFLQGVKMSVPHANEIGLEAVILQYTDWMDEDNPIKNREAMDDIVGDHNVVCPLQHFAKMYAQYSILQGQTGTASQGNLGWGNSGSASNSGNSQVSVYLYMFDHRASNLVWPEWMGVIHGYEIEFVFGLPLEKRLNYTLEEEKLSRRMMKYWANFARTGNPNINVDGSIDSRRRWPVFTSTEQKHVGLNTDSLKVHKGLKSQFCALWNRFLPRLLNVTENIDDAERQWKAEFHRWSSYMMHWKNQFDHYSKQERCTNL

SMILES	IC50 (Acetylcholinesterase)	IC50 [1]	IC50 [2]
Cc1cc(=O)oc2cc(Oc3ccc(Nc4c5c(nc6ccccc46)CCCC5)cc3)ccc12 [4-Methyl-7-(4-((1,2,3,4-tetrahydroacridin-9-yl)amino)phenoxy)-2H-chromen-2-one (8j)]	22.1 µM	38.6 µM	–
Cc1cc(=O)oc2cc(Oc3ccc(Nc4c5c(nc6ccccc46)CCCCC5)cc3)ccc12 [4-Methyl-7-(4-((7,8,9,10-tetrahydro-6H-cyclohepta[b]quinolin-11-yl)amino)phenoxy)-2H-chromen-2-one (8o)]	64.4 µM	> 100 µM	–
Cc1cc(=O)oc2cc(Oc3ccc(Nc4c5c(nc6ccc(Cl)cc46)CCCCC5)cc3)ccc12 [7-(4-(2-Chloro-7,8,9,10-tetrahydro-6H-cyclohepta[b]quinolin-11-ylamino)phenoxy)-4-methyl-2H-chromen-2-one (8q)]	54.1 µM	> 100 µM	–
O=c1ccc2ccc(Oc3ccc(Nc4c5c(nc6ccccc46)CCCC5)cc3)cc2o1 [7-(4-((1,2,3,4-Tetrahydroacridin-9-yl)amino)phenoxy)-2H-chromen-2-one (8g)]	19.1 µM	28.7 µM	–
O=c1ccc2ccc(Oc3ccc(Nc4c5c(nc6ccccc46)CCC5)cc3)cc2o1 [7-(4-((2,3-Dihydro-1H-cyclopenta[b]quinolin-9-yl)amino)phenoxy)-2H-chromen-2-one (8a)]	83.1 µM	> 100 µM	–
Cc1cc(=O)oc2cc(Oc3ccc(Nc4c5c(nc6ccccc46)CCC5)cc3)ccc12 [7-(4-((2,3-Dihydro-1H-cyclopenta[b]quinolin-9-yl)amino)phenoxy)-4-methyl-2H-chromen-2-one (8d)]	45.3 µM	> 100 µM	–
O=c1ccc2ccc(Oc3ccc(Nc4c5c(nc6cc(Cl)ccc46)CCCCC5)cc3)cc2o1 [7-(4-((3-Chloro-7,8,9,10-tetrahydro-6H-cyclohepta[b]quinolin-11-yl)amino)phenoxy)-2H-chromen-2-one (8n)]	> 100 µM	> 100 µM	–
Cc1cc(=O)oc2cc(Oc3ccc(Nc4c5c(nc6cc(Cl)ccc46)CCCCC5)cc3)ccc12 [7-(4-((3-Chloro-7,8,9,10-tetrahydro-6H-cyclohepta[b]quinolin-11-yl)amino)phenoxy)-4-methyl-2H-chromen-2-one (8p)]	31.8 µM	> 100 µM	–
O=c1ccc2ccc(Oc3ccc(Nc4c5c(nc6cc(Cl)ccc46)CCCC5)cc3)cc2o1 [7-(4-((6-Chloro-1,2,3,4-tetrahydroacridin-9-yl)amino)phenoxy)-2H-chromen-2-one (8h)]	> 100 µM	> 100 µM	–
Cc1cc(=O)oc2cc(Oc3ccc(Nc4c5c(nc6cc(Cl)ccc46)CCCC5)cc3)ccc12 [7-(4-((6-Chloro-1,2,3,4-tetrahydroacridin-9-yl)amino)phenoxy)-4-methyl-2H-chromen-2-one (8k)]	18 µM	31.2 µM	–
O=c1ccc2ccc(Oc3ccc(Nc4c5c(nc6cc(Cl)ccc46)CCC5)cc3)cc2o1 [7-(4-((6-Chloro-2,3-dihydro-1H-cyclopenta[b]quinolin-9-yl)amino)phenoxy)-2H-chromen-2-one (8b)]	> 100 µM	11.6 µM	–
Cc1cc(=O)oc2cc(Oc3ccc(Nc4c5c(nc6cc(Cl)ccc46)CCC5)cc3)ccc12 [7-(4-((6-Chloro-2,3-dihydro-1H-cyclopenta[b]quinolin-9-yl)amino)phenoxy)-4-methyl-2H-chromen-2-one (8e)]	16.2 µM	> 100 µM	7.99 µM
O=c1ccc2ccc(Oc3ccc(Nc4c5c(nc6ccccc46)CCCCC5)cc3)cc2o1 [7-(4-((7,8,9,10-Tetrahydro-6H-cyclohepta[b]quinolin-11-yl)amino)phenoxy)-2H-chromen-2-one (8m)]	> 100 µM	> 100 µM	–
O=c1ccc2ccc(Oc3ccc(Nc4c5c(nc6ccc(Cl)cc46)CCCC5)cc3)cc2o1 [7-(4-((7-Chloro-1,2,3,4-tetrahydroacridin-9-yl)amino)phenoxy)-2H-chromen-2-one (8i)]	> 100 µM	> 100 µM	–
Cc1cc(=O)oc2cc(Oc3ccc(Nc4c5c(nc6ccc(Cl)cc46)CCCC5)cc3)ccc12 [7-(4-((7-Chloro-1,2,3,4-tetrahydroacridin-9-yl)amino)phenoxy)-4-methyl-2H-chromen-2-one (8l)]	30.8 µM	> 100 µM	–
O=c1ccc2ccc(Oc3ccc(Nc4c5c(nc6ccc(Cl)cc46)CCC5)cc3)cc2o1 [7-(4-((7-Chloro-2,3-dihydro-1H-cyclopenta[b]quinolin-9-yl)amino)phenoxy)-2H-chromen-2-one (8c)]	38.5 µM	> 100 µM	–
Cc1cc(=O)oc2cc(Oc3ccc(Nc4c5c(nc6ccc(Cl)cc46)CCC5)cc3)ccc12 [7-(4-((7-Chloro-2,3-dihydro-1H-cyclopenta[b]quinolin-9-yl)amino)phenoxy)-4-methyl-2H-chromen-2-one (8f)]	36.7 µM	> 100 µM	–
